Data: patent US10786580B2, “Cholecystokinin 2 receptor targeted NIR imaging and use thereof” (On Target Laboratories, LLC, priority 2016, dated 2020)
Like-named read-outs stand apart in the source and are kept apart here.

Tests used:
CCK2R [1] = biological target: T1, CCK2R (Homo sapiens, UniProt P32239); test: In vitro binding of CCK2R-NIR compounds to HEK-CCK2R cells (cell bound fluorescence); parameters: expressed in transfected cells; host or cells: HEK (human embryonic kidney) cells, HEK-CCK2R, gift from Dr. Mark Hellmich (UTMB); conditions: for Kd: CCK2R-positive HEK-CCK2R cancer cells, 1 h at 37° C., read-out: KD; for affinity for CCK2R (in words): in vitro binding affinity data
T1 sequence (P32239 1-447): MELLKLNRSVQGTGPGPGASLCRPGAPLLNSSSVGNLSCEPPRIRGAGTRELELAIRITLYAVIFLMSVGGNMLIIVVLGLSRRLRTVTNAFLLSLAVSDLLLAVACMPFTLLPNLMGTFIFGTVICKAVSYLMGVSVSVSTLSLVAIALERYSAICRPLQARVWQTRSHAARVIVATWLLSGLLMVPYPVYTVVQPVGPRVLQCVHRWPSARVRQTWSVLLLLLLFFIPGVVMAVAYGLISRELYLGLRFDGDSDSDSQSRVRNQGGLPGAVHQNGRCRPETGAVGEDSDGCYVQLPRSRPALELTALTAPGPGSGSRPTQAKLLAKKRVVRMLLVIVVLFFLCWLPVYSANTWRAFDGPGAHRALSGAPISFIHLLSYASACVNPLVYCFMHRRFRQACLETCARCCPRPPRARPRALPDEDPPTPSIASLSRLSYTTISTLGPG
Description: FIG. 4 depicts the binding affinities of CCK2R-NIR compounds 21, 42-44 to CCK2R. CCK2R-positive HEK-CCK2R cancer cells were incubated for 1 h at 37° C. with increasing concentrations of compounds. Media was then removed, washed with fresh media three times, and replaced with PBS. Cell bound fluorescence was assayed as using fluorometer.
CCK2R-positive HEK-CCK2R cancer cells were incubated for 1 h at 37° C. with increasing concentrations of compounds. Media was then removed, washed with fresh media three times, and replaced with PBS. Cell bound fluorescence was assayed as using fluorometer.
FIG. 13 illustrates the binding affinity of […] to CCK2R. CCK2R-positive HEK-CCK2R cancer cells were incubated for 1 h at 37° C. with increasing concentrations of compound 21. Media was then removed, washed with fresh media three times, and replaced with PBS. Cell bound fluorescence was assayed as using fluorometer.
HEK-CCK2 cells (a human embryonic kidney cells transfected with CCK2 receptor) were a kind gift from Dr. Mark Hellmich (University of Texas Medical Branch, Galveston, Tex.) and grown as a monolayer using Dulbecco's Modified Eagles Medium (GIBCO) (Gibco, NY) 10% heat-inactivated fetal bovine serum (Atlanta Biological, GA) and 1% penicillin streptomycin (Gibco, NY) in a 5% carbon dioxide: 95% air-humidified atmosphere at 37° C. for at least six passages before they were used for the assays.
HEK cells that overexpress CCK2 were seeded into a T75 flask and allowed to form a monolayer over 48 h. After trypsin digestion, release cells were transferred into centrifuge tubes (1×10^6 cells/tube) and centrifuged. The medium was replaced with fresh medium containing increasing concentration of requisite CCK2R-Ligand-NIR dye compound in the presence or absence of 100-fold excess the ligand, a high affinity CCK2 receptor antagonist, and incubated for 1 h at 37° C. After rinsing with fresh medium (2×1.0 mL) and PBS (1×1.0 mL), cells were resuspended in PBS (1.0 mL) and cell bound fluorescence was analyzed (100,000 cells/sample) using a fluorometer (Cary, Agilent). The relative binding affinities were calculated using a plot of % cell bound fluorescence versus the log concentration of the test article using GraphPad Prism 4.

CCK1R = biological target: T2, CCK1R (Homo sapiens, UniProt P32238); conditions: cited from earlier work
T2 sequence (P32238 1-428): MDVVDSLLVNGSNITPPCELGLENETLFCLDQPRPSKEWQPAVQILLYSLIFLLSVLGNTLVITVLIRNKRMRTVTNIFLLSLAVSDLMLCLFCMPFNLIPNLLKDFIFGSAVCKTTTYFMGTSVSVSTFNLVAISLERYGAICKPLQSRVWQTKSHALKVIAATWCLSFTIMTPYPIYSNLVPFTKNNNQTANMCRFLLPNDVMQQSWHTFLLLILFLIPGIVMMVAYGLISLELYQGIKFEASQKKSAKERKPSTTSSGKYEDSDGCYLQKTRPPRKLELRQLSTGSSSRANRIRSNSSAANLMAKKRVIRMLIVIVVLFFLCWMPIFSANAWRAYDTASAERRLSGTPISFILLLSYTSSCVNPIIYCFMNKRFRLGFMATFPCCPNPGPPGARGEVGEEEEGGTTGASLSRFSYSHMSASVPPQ

[2] = system: subcutaneous PANC-1 tumor; conditions: oral Z-360 along with gemcitabine, cited from earlier work
CCK2R [3] = biological target: T1, CCK2R; conditions: cited from earlier work

## CC(C)(C)C(=O)CN1C(=O)[C@H](NC(=O)Nc2cccc(C(=O)N[C@H](CCC(=O)N[C@@H](CCCNC(=N)N)C(=O)N[C@@H](Cc3ccc(OC4=C(/C=C/C5=[N+](CCCCS(=O)(=O)[O-])c6ccc(S(=O)(=O)O)cc6C5(C)C)CCC/C4=C\C=C4\N(CCCCS(=O)(=O)O)c5ccc(S(=O)(=O)O)cc5C4(C)C)cc3)C(=O)O)C(=O)O)c2)CN(C2CCCCC2)c2ccccc21 [Compound 42]
CCK2R [1]; Table 1
  Kd: 1.74 nM
CCK2R [1]; HEK-CCK2R cells
  affinity for CCK2R (in words): relatively weaker affinity

## CC(C)(C)C(=O)CN1C(=O)[C@@H](NC(=O)Nc2cccc(C(=O)N[C@H](CCC(=O)O)C(=O)N[C@H](Cc3ccc(OC4=C(/C=C/C5=[N+](CCCCS(=O)(=O)[O-])c6ccc(S(=O)(=O)O)cc6C5(C)C)CCC/C4=C\C=C4\N(CCCCS(=O)(=O)O)c5ccc(S(=O)(=O)O)cc5C4(C)C)cc3)C(=O)O)c2)CN(C2CCCCC2)c2ccccc21 [Compound 43]
CCK2R [1]; HEK-CCK2R cells
  affinity for CCK2R (in words): very high affinity

## CC(C)(C)C(=O)CN1C(=O)[C@@H](NC(=O)Nc2cccc(C(=O)N[C@@H](CCC(=O)N[C@H](CCCNC(=N)N)C(=O)N[C@H](CC(=O)O)C(=O)N[C@H](Cc3ccc(OC4=C(/C=C/C5=[N+](CCCCS(=O)(=O)[O-])c6ccc(S(=O)(=O)O)cc6C5(C)C)CCC/C4=C\C=C4\N(CCCCS(=O)(=O)O)c5ccc(S(=O)(=O)O)cc5C4(C)C)cc3)C(=O)O)C(=O)O)c2)CN(C2CCCCC2)c2ccccc21 [Compound 44]
CCK2R [1]; HEK-CCK2R cells
  affinity for CCK2R (in words): relatively weaker affinity

## CC(C)(C)C(=O)CN1C(=O)[C@H](NC(=O)Nc2cccc(C(=O)N[C@@H](CCC(=O)N[C@@H](Cc3ccc(OC4=C(/C=C/C5=[N+](CCCCS(=O)(=O)[O-])c6ccc(S(=O)(=O)O)cc6C5(C)C)CCC/C4=C\C=C4\N(CCCCS(=O)(=O)O)c5ccc(S(=O)(=O)O)cc5C4(C)C)cc3)C(=O)O)C(=O)O)c2)CN(C2CCCCC2)c2ccccc21 [Compound 45]
CCK2R [1]; Table 2
  Kd: 2.3 nM

## CC(C)(C)C(=O)CN1C(=O)[C@@H](NC(=O)Nc2cccc(C(=O)N[C@H](CCC(=O)N[C@@H](Cc3ccc(OC4=C(/C=C/C5=[N+](CCCCS(=O)(=O)[O-])c6ccc(S(=O)(=O)O)cc6C5(C)C)CCC/C4=C\C=C4\N(CCCCS(=O)(=O)O)c5ccc(S(=O)(=O)O)cc5C4(C)C)cc3)C(=O)O)C(=O)O)c2)CN(C2CCCCC2)c2ccccc21 [Compound 47]
CCK2R [1]; Table 2
  Kd: 14.7 nM
CCK2R [1]; HEK-CCK2R cells
  affinity for CCK2R (in words): relatively weak affinity

## CC(C)(C)C(=O)CN1C(=O)[C@H](NC(=O)Nc2cccc(C(=O)NCCCC(=O)N[C@@H](Cc3ccc(OC4=C(/C=C/C5=[N+](CCCCS(=O)(=O)[O-])c6ccc(S(=O)(=O)O)cc6C5(C)C)CCC/C4=C\C=C4\N(CCCCS(=O)(=O)O)c5ccc(S(=O)(=O)O)cc5C4(C)C)cc3)C(=O)O)c2)CN(C2CCCCC2)c2ccccc21 [Compound 48]
CCK2R [1]; HEK-CCK2R cells
  affinity for CCK2R compared to compound 21: less affinity
  affinity for CCK2R (in words): very high affinity
CCK2R [1]; Table 2
  Kd: 0.9 nM

## CC(C)(C)C(=O)CN1C(=O)[C@H](NC(=O)Nc2cccc(C(=O)NCCCC(=O)N[C@H](Cc3ccc(OC4=C(/C=C/C5=[N+](CCCCS(=O)(=O)[O-])c6ccc(S(=O)(=O)O)cc6C5(C)C)CCC/C4=C\C=C4\N(CCCCS(=O)(=O)O)c5ccc(S(=O)(=O)O)cc5C4(C)C)cc3)C(=O)O)c2)CN(C2CCCCC2)c2ccccc21 [Compound 49]
CCK2R [1]; Table 2
  Kd: 13.9 nM

## CC(C)(C)C(=O)CN1C(=O)[C@H](NC(=O)Nc2cccc(C(=O)O)c2)CN(C2CCCCC2)c2ccccc21 [Compound Z-360]
CCK1R
  selectivity ratio over CCK1R: 672
[2]; compared with either agent alone
  inhibition of subcutaneous PANC-1 tumor growth: 27.1%
[2]
  survival compared with the vehicle: significantly increased survival
CCK2R [3]
  Ki: 0.47 nM
